Reference: PubChem BioAssay (NCI)
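1) Cells in 96-well plates. 2) Compound, 48 h, 5 concentrations. 3) Linear interpolation between surrounding doses. 4) Unreached endpoint = highest concentration. GI50 is the concentration that inhibits growth by half. The concentration for full growth arrest is given as TGI.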

Experiments:
Assay in all cases: inhibition of tumour cell growth, NCI panel, 48 h
[1] = system: A549 NSCLC
[2] = system: ACHN renal
[3] = system: EKVX NSCLC
[4] = system: HCT-15 colon
[5] = system: HT29 colon
[6] = system: MALME-3M melanoma
[7] = system: MCF7 breast
[8] = system: OVCAR-8 ovarian
[9] = system: RXF 393 renal
[10] = system: K-562 leukemia

Compound	GI50 [1]	TGI [1]	GI50 [2]	TGI [2]	GI50 [3]	TGI [3]	GI50 [4]	TGI [4]	GI50 [5]	TGI [5]	GI50 [6]	TGI [6]	GI50 [7]	TGI [7]	GI50 [8]	TGI [8]	GI50 [9]	TGI [9]	GI50 [10]	TGI [10]
NC(=NCCCCCCN=C(N)/N=C(\N)Nc1ccc(Cl)cc1)/N=C(\N)Nc1ccc(Cl)cc1	1.05 µM	5.3 µM	2.18 µM	8.36 µM	1.53 µM	8.3 µM	2 µM	9.46 µM	1.62 µM	5.18 µM	1.1 µM	3.28 µM	1.6 µM	5.49 µM	1.67 µM	7.19 µM	1.88 µM	8.11 µM		
O=C1C(Cl)=C(Nc2ccc(S(=O)(=O)c3ccc(NC4=C(Cl)C(=O)c5ccccc5C4=O)cc3)cc2)C(=O)c2ccccc21	5.71 µM	38.8 µM	1.31 µM	2.69 µM	2.36 µM	9.07 µM			2 µM	5.02 µM	2.13 µM	3.88 µM					1.6 µM	2.96 µM	1.63 µM	5.24 µM
O=C(/C=C/c1ccc(O)c(O)c1)N1CCN(c2ccc(Cl)cc2)CC1	5.7 µM	60.2 µM	4.01 µM	38.2 µM			3.83 µM	29.2 µM	13.1 µM	32 µM	11.1 µM	57.5 µM	6.08 µM	25 µM	5.46 µM	44.4 µM			4.77 µM	58.7 µM
Cc1cc(N(CCC#N)CCC#N)ccc1/C=C(\NC(=O)/C=C/c1ccccc1)C(=O)Nc1ccccc1Cl		> 100 µM		> 100 µM		> 100 µM		> 100 µM		> 100 µM		> 100 µM				> 100 µM		> 100 µM		> 100 µM
COc1cc2c(oc(=O)c3c4occc4cc(OC)c23)c2cccc(O)c12		> 100 µM		> 100 µM		> 100 µM		> 100 µM		> 100 µM		> 100 µM				> 100 µM		> 100 µM		> 100 µM
COC(=O)C1=NC(=S)NC(c2ccccc2)C1c1nc2ccccc2o1 (stereo unspecified)		> 50 µM		> 50 µM		> 50 µM		> 50 µM		> 50 µM		> 50 µM				> 50 µM		> 50 µM		> 50 µM
CCCN1C(=O)/C(=C/c2ccc(SC(F)(F)F)cc2)SC1=Nc1ccc(OC)cc1	8.87 µM	30.1 µM	5.53 µM	11.8 µM	16.7 µM	48.3 µM	2.65 µM	36.9 µM	17.6 µM	> 50 µM			15.6 µM	> 50 µM	7.42 µM	20.7 µM	5.35 µM	16.9 µM	23.1 µM	> 50 µM
COC(=O)C(=O)C(C(=O)C(=O)Nc1ccc([N+](=O)[O-])cc1)c1nc2ccccc2[nH]c1=O (stereo unspecified)		> 100 µM		> 100 µM				> 100 µM		> 100 µM		> 100 µM				> 100 µM		> 100 µM		> 100 µM
CC1NOC(=O)C1N=Nc1cccc(Cl)c1 (stereo unspecified)		> 100 µM		> 100 µM		> 100 µM		42.6 µM		77 µM		> 100 µM				> 100 µM		64.1 µM		> 100 µM
COc1ccc(/C=C/C(=N\NC(=O)c2ccccc2)c2sc(Nc3ccc([N+](=O)[O-])cc3)nc2C)cc1OC		28.9 µM		41.8 µM		91 µM		28.5 µM		> 100 µM		43.1 µM				27 µM		52.5 µM		> 100 µM
Cc1c(Cl)ccc2c1NC(=O)C2(O)CC(=O)c1ccc(Cl)cc1 (stereo unspecified)		> 100 µM		> 100 µM		> 100 µM		> 60.1 µM		> 66.1 µM		> 54.4 µM				> 100 µM		> 88.5 µM		> 64.8 µM
CCOc1ccc(C2=NN(CC)C(=O)C(C3C(=O)N(c4ccccc4)N=C3C)C2)cc1 (stereo unspecified)		> 100 µM		> 100 µM		> 100 µM		> 100 µM		> 100 µM		> 100 µM				> 100 µM		> 100 µM		> 100 µM
COc1cc(C(=O)c2cnc(-c3c[nH]c4cccc(C)c34)[nH]2)cc(OC)c1OC	0.0109 µM	> 100 µM	0.00846 µM	26.7 µM	0.00804 µM		0.00659 µM	> 100 µM	0.00643 µM		11.4 µM	> 100 µM	0.00344 µM	> 100 µM	0.0078 µM	43.2 µM			0.00363 µM	17.4 µM
Cc1cc(NCCCCCCCNc2cc(C)nc3cc(N)ccc23)c2ccc(N)cc2n1		> 100 µM		> 100 µM		> 100 µM		> 100 µM		> 100 µM		> 100 µM				> 100 µM		> 100 µM		26.1 µM
COC(=O)Cc1cc(=O)n2c3ccccc3n(C)c2c1C#N		> 100 µM		> 100 µM		> 100 µM		> 100 µM		> 100 µM		> 100 µM				> 100 µM		> 100 µM		> 100 µM
C[N+](C)(C)CC1CCC(C[N+](C)(C)C)C1=NO (stereo unspecified)		> 100 µM		> 100 µM		> 100 µM		> 100 µM		> 100 µM		> 100 µM				> 100 µM		> 100 µM		> 100 µM
CCCC1C[C@H]2CCCCN2[C@H]2CCCN12 (stereo partly specified)		> 100 µM		> 100 µM		> 100 µM		> 75.5 µM		> 100 µM		> 100 µM				> 100 µM		> 90.1 µM		> 88.4 µM
CCc1ccc2c(c1)C(=O)c1c-2n(CCCN)c(=O)c2cc(OC)c(OC)cc12			1.68 µM	3.07 µM	1.92 µM	3.44 µM	1.59 µM	3.01 µM	1.56 µM	2.98 µM	0.5 µM	2.1 µM	1.58 µM	3.43 µM					0.306 µM	0.907 µM
C=CCC(N[C@@H](CO)c1ccccc1)c1ccc2ccccc2n1 (stereo partly specified)	> 100 µM	> 100 µM	> 100 µM	> 100 µM	> 100 µM	> 100 µM	> 100 µM	> 100 µM	> 100 µM	> 100 µM	88.6 µM	> 100 µM			> 100 µM	> 100 µM	> 100 µM	> 100 µM	36.2 µM	> 100 µM
